{"source": "patent US8834919B2", "about": "“Lipid emulsions in the treatment of systemic poisoning” (priority 1998, dated 2014)", "key": {"[1]": {"type": "in vivo, rat", "conditions": "saline pretreatment (group 1); +/- SEM", "experimental": "Immediately following pretreatment, all animals received an infusion of about 0.75% bupivacaine via the internal iliac catheter at a rate of 10 mg/kg/min to an end point of about ten seconds of asystole. Blood was then drawn from the aorta into a heparinized syringe for plasma bupivacaine determinations. The cumulative lethal dose of bupivacaine was calculated in mg/kg for all animals.\nPlasma bupivacaine concentrations were determined by high performance liquid chromatograph (HPLC) after the samples had been extracted with hexane. The method of hexane extraction was validated with bupivacaine spiked samples and provided greater than about 95% recovery of bupivacaine from both normal and lipemic plasma. Thus, plasma bupivacaine concentrations reflected total bupivacaine content in both the aqueous and lipid phases of the specimen. […] The drugs were detected at a wavelength of about 215 nm.\nBupivacaine dose and plasma concentrations were analyzed by Kruskal-Wallis one way analysis of variance on ranks. […] Plasma bupivacaine concentration data were parametric and differences in mean values were evaluated. […] The difference in survival of the two groups at 15 mg/kg bupivacaine was further evaluated using a z test of proportions. […]"}, "[2]": {"conditions": "octanol:water; P = [organic]/[aqueous]; cited from earlier work"}, "Male Sprague-Dawley rats": {"test_system": "Male Sprague-Dawley rats", "experiment": "Pretreatment with lipid emulsion: dose-response to bupivacaine induced asystole in rats (protocol 1)", "type": "in vivo, rat", "from_the_text": "Studies were undertaken to assess the ability of a lipid emulsion to shift the dose-response to drug-induced asystole (heart stoppage) in rats. Pretreatment with a lipid emulsion increased the dose of bupivacaine (a local anesthetic) required to induce asystole. Racemic bupivacaine hydrochloride was purchased from Sigma (St. Louis, Mo.) while tritiated bupivacaine was purchased from Moravek Biochemicals (Brea, Calif.). Intralipid® was purchased from Baxter Healthcare (Deerfield, Ill.). Male Sprague-Dawley rats weighing between about 250 grams to about 370 grams were used in all experiments.\nAnimals were first anesthetized in a bell jar with isoflurane to allow intubation, then mechanically ventilated with about 1.75% isoflurane in about 100% oxygen using a Harvard rodent ventilatory model 680 in conjunction with a tidal volume of 3 ml and a starting rate of about 40 breaths per minute. […] Electrocardiogram (BCG) was monitored via three subcutaneous needle electrodes in each rat. […]\nAll animals were allowed to stabilize for about 15 minutes while arterial blood pressure and ECG were monitored. […]\nImmediately following pretreatment, all animals received an infusion of about 0.75% bupivacaine via the internal iliac catheter at a rate of 10 mg/kg/min to an end point of about ten seconds of asystole. […] The cumulative lethal dose of bupivacaine was calculated in mg/kg for all animals. […]"}, "[3]": {"experiment": "Resuscitation from a toxic bupivacaine dose with lipid emulsion (protocol 2)", "conditions": "male, Sprague-Dawley, rat, in vivo, iv, resuscitation with saline infusion after iv bupivacaine bolus; probit analysis", "experimental": "Bupivacaine dose and plasma concentrations were analyzed by Kruskal-Wallis one way analysis of variance on ranks. Post hoc testing of both data sets was performed by Student-Newman-Keul's method for multiple comparisons (SigmaStat, Jandel Scientific/San Rafael, Calif.). Cumulative bupivacaine dose data were nonparametric and median values were compared by differences of ranks. Plasma bupivacaine concentration data were parametric and differences in mean values were evaluated. Probit analysis (CalcuSyn, Biosoft/Cambridge, England) was used to compare bupivacaine LD50 values in the saline and lipid portions. The difference in survival of the two groups at 15 mg/kg bupivacaine was further evaluated using a z test of proportions. Statistical significance in all experiments was taken as p less than or equal to 0.05.\nExperiments were performed to evaluate the ability of a lipid emulsion to resuscitate an animal from a toxic dose of bupivacaine. All animals were anaesthetized, instrumented and stabilized at about 1.75% isoflurane as described in Example 1, and arterial blood pressure and ECG were continuously monitored. […] Survival was scored about 5 minutes after the bupivacaine bolus and required both heart rate greater than about 100 beats per minute and systolic blood pressure greater than about 60 mmHg. […]"}, "[4]": {"experiment": "Bupivacaine lipid:aqueous partition in a mixture of Intralipid and rat plasma", "type": "physicochemical", "experimental": "The bupivacaine lipid:aqueous partition coefficient was determined for a mixture of Intralipid® and rat plasma. Blood obtained from rats by direct heart puncture under halothane anesthesia was centrifuged and the plasma was separated. Equal volumes of about 30% Intralipid® and plasma (approximately 2 ml each) were combined and vortexed. Approximately 1.0 μCi of titriated bupivacaine (specific activity 0.81 Ci/mole) was added to the mixture to a final bupivacaine concentration of about 93 μg/ml. This mixture was vortexed again then separated into aliquots of about 1 ml. These aliquots were allowed to sit undisturbed for about one hour at about 38° C., then centrifuged at about 10,000 g for about 10 minutes. High speed centrifugation separated each of these mixtures into a clear aqueous phase (about 0.85 ml) under a lipid phase (about 0.15 ml). The latter comprised a clear layer beneath a very thin white cap. The cap was removed then redissolved in saline to a total volume of about 1 ml. Aliquots of this solution and the aqueous plasma phase were then analyzed for tritiated bupivacaine content by liquid scintillation counting. The bupivacaine lipid:aqueous partition coefficient was given by the ratio of bupivacaine in the combined lipid phase (following correction for saline dilution) to the bupivacaine in the aqueous phase. This experiment was performed in triplicate."}, "rats": {"test_system": "rats", "experiment": "Pretreatment with lipid emulsion: cocaine toxicity in rats", "type": "in vivo, rat", "conditions": "control (saline), cocaine iv 5 mg/kg/min", "experimental": "Because of the significant potential benefit, experiments were performed to test an infusion of a lipid emulsion as a method of treating cocaine toxicity. Anesthetized, ventilated rats were infused with a lipid emulsion (20% Intralipid® at 10 ml/kg for 2 minutes) and then administered an intravenous infusion of cocaine at 5 mg/kg/min to hypotension (blood pressure is less than 40 mmHg) or asystole (no heartbeat for 5 seconds). […] Thus, pretreatment with a lipid emulsion composition shifts the dose-response of cocaine in much the same way as bupivacaine. This is an expected result given the similar properties and effects between cocaine and bupivacaine. These findings indicate that lipid infusion can be used to treat patients experiencing acute cardiovascular compromise in cocaine overdose."}}}
{"smiles": "CCCCN1CCCCC1C(=O)Nc1c(C)cccc1C", "note": "(racemic) [bupivacaine]", "values": [{"measurement": "mean plasma bupivacaine concentration at the time of asystole", "setting": "[1]", "result": "93.3 ± 7.6", "unit": "µg/mL"}, {"measurement": "logP", "setting": "[2]", "result": 3.64}, {"measurement": "Median bupivacaine lethal dose", "setting": "Male Sprague-Dawley rats; saline pretreatment (group 1), 0.75% bupivacaine 10 mg/kg/min to asystole, n=6", "result": 17.8, "unit": "mg/kg"}, {"measurement": "lethal bupivacaine dose, lower end of range among all animals", "setting": "Male Sprague-Dawley rats; single animal receiving saline pretreatment", "result": "about 12.7 mg/kg"}, {"measurement": "LD50 at 5 min", "setting": "[3]", "result": 12.5, "unit": "mg/kg"}, {"measurement": "percent of total bupivacaine dissolved in the lipid phase", "setting": "[4]; equal volumes of about 30% Intralipid and plasma, lipid volume about 15% of total", "result": "about 75.3%"}, {"measurement": "lipid:aqueous ratio of bupivacaine concentrations", "setting": "[4]; equal volumes of about 30% Intralipid and rat plasma, about 38 °C, about 93 μg/ml, +/- standard error, triplicate", "result": "11.9+/−1.77"}]}
{"smiles": "CC(NC(C)(C)C)C(=O)c1cccc(Cl)c1", "note": "(stereo not drawn) [bupropion]", "values": [{"measurement": "logP", "setting": "[2]", "result": 3.47}]}
{"smiles": "COC(=O)[C@H]1[C@@H](OC(=O)c2ccccc2)C[C@@H]2CC[C@H]1N2C", "note": "[cocaine]", "values": [{"measurement": "time to asystole", "setting": "rats", "result": "368 ± 27", "unit": "s"}, {"measurement": "mean time to hypotension (40 mmHg)", "setting": "rats; n=8", "result": "143 ± 22", "unit": "s"}]}
{"smiles": "COc1ccc([C@@H]2Sc3ccccc3N(CCN(C)C)C(=O)[C@@H]2OC(C)=O)cc1", "note": "[diltiazem]", "values": [{"measurement": "logP", "setting": "[2]", "result": 4.53}]}
{"smiles": "Nc1nnc(-c2cccc(Cl)c2Cl)c(N)n1", "note": "[lamotrigine]", "values": [{"measurement": "logP", "setting": "[2]", "result": "−0.19"}]}
{"smiles": "Cc1cccc(C)c1NC(=O)C1CCCCN1C", "note": "(stereo not drawn) [mepivacaine]", "values": [{"measurement": "logP", "setting": "[2]", "result": 2.04}]}
{"smiles": "CCCN1CCCC[C@H]1C(=O)Nc1c(C)cccc1C", "note": "[ropivacaine]", "values": [{"measurement": "logP", "setting": "[2]", "result": 3.11}]}
{"smiles": "CCCCNc1ccc(C(=O)OCCN(C)C)cc1", "note": "[tetracaine]", "values": [{"measurement": "logP", "setting": "[2]", "result": 3.49}]}
